The values that follow come from US20110088107A1, “COMPOSITIONS AND METHODS FOR DERIVING OR CULTURING PLURIPOTENT CELLS” (priority 2009, published 2011).

Assay [1] relates to mESCs. Briefly: Signaling dependence of pluripotent cell lines, mESCs. Format: cell-based, mouse. The note with it: normal growth medium, inhibitor or factor added. Here is the method:
Pluripotent cells were equally divided and plated on feeders in the indicated growth medium in which these cell lines are normally maintained, and 36 hours later the wells were supplemented with the indicated inhibitors or growth factors. After seven days, wells were fixed and stained to determine the relative percentage of colonies positive for pluripotency markers. SSEA1 staining was used for mouse stem cells. Colony formation was normalized to an internal control “Growth medium” without inhibitors (first left column). Normalized percentages lower than 5% are defined as “sensitivity” to the presence of the supplemented inhibitor. (B-C) Western blot analysis of total ERK1/2, phosphorylated ERK1/2 (pERK1/2) and phosphorylated Stat3 (pStat3). WIBR3 hESC and C1 hiPSC were grown in traditional bFGF/Activin containing media while naive-hESC/hiPSCs were grown in N2B27 PD/CH/FOR/LIF. ‘2×LIF’ indicates two fold increase in LIF concentration. (D) LIF/Stat3 is required for stabilization of naive-hESC/hiPSCs. Naïve NOD mESCs, WIBR3.5 and WIBR3.1 naive-hESC, and C1 naïve-hiPSCs were electroporated with a pBRY-CAGGS-flox-DsRedT4-IP control plasmid, a plasmid encoding a dominant negative Stat3 Y705F mutant (Stat3-DN), or a plasmid Stat3-C constitutively active mutant (pBRY-Stat3-CA). Cells were passaged three times in the presence of puromycin. After 20 days, colonies positive for pluripotency markers were counted and normalized to colonies from cells electroporated with empty vector (n=3 replicates for each condition). (E) RT-PCR expression of early germ cell markers in the presence or absence of BMP4/7/8 cytokines for 7 days. (F) Representative FISH analysis for XIST RNA (red) and Cot1 nuclear RNA (green). Pri-WIBR3.2 cell line was analyzed after passaging in conventional bFGF/serum-containing human ESC growth conditions. Numbers indicate average percentage of XIST positive nuclei counted. […]

Assay [2] relates to hESCs. Briefly: Signaling dependence of pluripotent cell lines, conventional hESCs. The class given is cell-based, human. Conditions: normal growth medium, inhibitor or factor added. Here is the method: Pluripotent cells were equally divided and plated on feeders in the indicated growth medium in which these cell lines are normally maintained, and 36 hours later the wells were supplemented with the indicated inhibitors or growth factors. After seven days, wells were fixed and stained to determine the relative percentage of colonies positive for pluripotency markers. SSEA1 staining was used for mouse stem cells. Colony formation was normalized to an internal control “Growth medium” without inhibitors (first left column). […] (B-C) Western blot analysis of total ERK1/2, phosphorylated ERK1/2 (pERK1/2) and phosphorylated Stat3 (pStat3). WIBR3 hESC and C1 hiPSC were grown in traditional bFGF/Activin containing media while naive-hESC/hiPSCs were grown in N2B27 PD/CH/FOR/LIF. ‘2×LIF’ indicates two fold increase in LIF concentration. […] Cells were passaged three times in the presence of puromycin. […] (E) RT-PCR expression of early germ cell markers in the presence or absence of BMP4/7/8 cytokines for 7 days. (F) Representative FISH analysis for XIST RNA (red) and Cot1 nuclear RNA (green). Pri-WIBR3.2 cell line was analyzed after passaging in conventional bFGF/serum-containing human ESC growth conditions.

Assay [3] concerns mEpiSCs. Briefly: Signaling dependence of pluripotent cell lines, mEpiSCs. Conditions: normal growth medium, inhibitor or factor added. Format: cell-based, mouse. Here is the method: (§1) Pluripotent cells were equally divided and plated on feeders in the indicated growth medium in which these cell lines are normally maintained, and 36 hours later the wells were supplemented with the indicated inhibitors or growth factors. After seven days, wells were fixed and stained to determine the relative percentage of colonies positive for pluripotency markers. SSEA1 staining was used for mouse stem cells. Colony formation was normalized to an internal control “Growth medium” without inhibitors (first left column). Normalized percentages lower than 5% are defined as “sensitivity” to the presence of the supplemented inhibitor. (B-C) Western blot analysis of total ERK1/2, phosphorylated ERK1/2 (pERK1/2) and phosphorylated Stat3 (pStat3). WIBR3 hESC and C1 hiPSC were grown in traditional bFGF/Activin containing media while naive-hESC/hiPSCs were grown in N2B27 PD/CH/FOR/LIF. ‘2×LIF’ indicates two fold increase in LIF concentration. (D) LIF/Stat3 is required for stabilization of naive-hESC/hiPSCs. Naïve NOD mESCs, WIBR3.5 and WIBR3.1 naive-hESC, and C1 naïve-hiPSCs were electroporated with a pBRY-CAGGS-flox-DsRedT4-IP control plasmid, a plasmid encoding a dominant negative Stat3 Y705F mutant (Stat3-DN), or a plasmid Stat3-C constitutively active mutant (pBRY-Stat3-CA). Cells were passaged three times in the presence of puromycin. After 20 days, colonies positive for pluripotency markers were counted and normalized to colonies from cells electroporated with empty vector (n=3 replicates for each condition). (E) RT-PCR expression of early germ cell markers in the presence or absence of BMP4/7/8 cytokines for 7 days. (F) Representative FISH analysis for XIST RNA (red) and Cot1 nuclear RNA (green). Pri-WIBR3.2 cell line was analyzed after passaging in conventional bFGF/serum-containing human ESC growth conditions. Numbers indicate average percentage of XIST positive nuclei counted.
(§2) Small molecules and cytokines were purchased from Tocris, Calbiochem or Sigma, and were supplemented as indicated at the following final concentration: JAK inhibitor (JAKi, 6 μM), Kenpaullone (KP, 5 μM), PD0325901 (PD, 1 μM); CHIR99021 (CH, […]), Forskolin (FK, 10 μM), FGF4-Receptor inhibitors PD173074 (0.1 μM) and SU5401 (2 μM); TGFβ/ALK inhibitors A83-01 (1 μM), RepSox (1 μM), ALK inhibitor (ALKi—SB431542, 2 μM); AICAR (0.5 mM); BixO1294 (1 μM); BayK8644 (1 μM); recombinant human BMP4 (10 ng/ml), recombinant human IL-6 (10 ng/ml), recombinant human TGFβ (500 ng/ml), Media with inhibitors was routinely replaced every 48 hours to sustain activity of compounds.

Assay [4] deals with naive-hESCs/hiPSCs. Briefly: Signaling dependence of pluripotent cell lines, naive-hESC/hiPSC. Format: cell-based, human. The note with it: grown in PD/CH/FK/LIF, inhibitor or factor added. Here is the method: as §1, §2
The test system of assay [5] is NOD-iPS cells. As to the kind of experiment: Dox-independent propagation of Dox-dependent NOD-iPS cells in supplemented mESM. The class given is cell-based, mouse (NOD). Conditions: mESM lacking Dox. From the text:
FIGS. 4(A)-4(H) illustrate generation of genetically unmodified germline competent NOD ES cells. (A) Experimental outline for derivation of iPS lines that grow in the presence of small molecules and in the absence of Dox. Representative images of NOD iPS lines growing in mESM supplemented with the indicated small molecules or growth factors. (B) Single-cell cloning efficiency of NOD iPS cells in different growth conditions. WT or NOD-iPS cells grown in mESM and KP were sorted in 96 well plates and cultured in mESM supplemented with small molecules. The number of wells containing Nanog+ colonies was counted after 6 days. Efficiencies were normalized to that of C57B6/129F1-iPS cells (“permissive” controls) plated in mESM and defined as 100%. SD for average efficiencies from 2 experiments are shown. Student test P value compares KP/CH to PD/CH mESM conditions for NOD iPS cells. (C) Expansion of day E3.5 ICM derived NOD ES cells in the presence of KP, KP/CH or PD/CH and derivation of stable ES lines. Images of initial colonies observed at passage 2 after embryo dissociation are shown together with representative images at later passages. (D) Karyotype of NOD ES lines. (E) Immunostaining of NOD ES lines for pluripotency markers. Inhibitors used during cell line derivation and propagation are indicated. (F) Chimerism in adult mice generated from the indicated cell lines is evident by the presence of agouti (brown) and albino coat color originating from the NOD background. […] (G) Real-Time PCR analysis for endogenous expressed Oct4, c-Myc and Klf4 genes in NOD iPS and ES cells grown in the indicated conditions. Relative expression levels are normalized to levels detected in control 129 ES cells. (H) Southern analysis indicating correct targeting of the endogenous Nanog locus in NOD ES cells with Nanog-GFP knock-in targeting construct.
Small molecules have been identified to replace some of the reprogramming factors in iPS derivation (Huangfu et al., 2008; Shi et al., 2008). […]

Assay [6] has as its system C1.2 hiPSCs. Briefly: Screen for factors stabilizing C1 hiPSCs upon DOX withdrawal. Format: cell-based, human. Conditions: C1.2 hiPSCs without DOX. Here is the method: FIGS. 9(A)-9(D) show the in vitro stabilization of naïve human pluripotent stem cells. […] C1 cells were plated on feeders in N2B27 media with the indicated factors. p-values using student's t-test indicates significant change in comparison to cells grown in DOX/PD/CH/LIF conditions, which were defined as a control (100% survival). (B) Scheme for reverting hESCs to generate “naive-hESCs”. (C) Representative images of WIBR3 hESCs at different stages of the reversion process in PD/CH/LIF/FK (P indicates passage number). (D) Representative images of naive-WIBR3.5 hESC line, derived by plating WIBR3 hESCs in PD/CH/FK/LIF medium without transfection of exogenous factors. Magnifications of captured images are indicated. Naïve human pluripotent cells were grown in serum-free N2B27 based media. […] Throughout the manuscript, indicated passage numbers of naïve-hiPSC/hESCs indicates number of passages counted after induction of the naïve state. […]

With `Cc1cccc(-c2nn(C(=S)Nc3ccccc3)cc2-c2ccnc3ccccc23)n1` [A83-01], the “effect on pluripotency of mESCs” value in assay [1] is given as “maintained their pluripotent state”. Further, the “effect on pluripotency of conventional hESCs” value (from here on “effect … of conventional hESCs”) in assay [2] is listed as “rapidly differentiated”. Further, the “effect on pluripotency of mEpiSCs” value in assay [3] is reported as “rapidly differentiated”. Further, the “effect on pluripotency of naive-hESCs/hiPSCs” value (shortened to “effect … of naive-hESCs/hiPSCs”) in assay [4] is “maintained their pluripotent state”.

On to `Cc1c[nH]c(-c2cnc(NCCNc3ccc(C#N)cn3)nc2-c2ccc(Cl)cc2Cl)n1` [CHIR99021], for which the “Dox-independent growth of pluripotent NOD-iPS cells” value in assay [5] is “supported Dox-independent growth”. The “role in the 13i+LIF cocktail on removing one inhibitor at a time” value in assay [6] is “crucial components”.

With `CCN(CC)CCCCNc1ncc2cc(-c3cc(OC)cc(OC)c3)c(NC(=O)NC(C)(C)C)nc2n1` [PD173074], in assay [2], the “effect … of conventional hESCs” value is given as “resulted in the differentiation”. For the same compound, the “effect on pluripotency of mEpiSCs” value in assay [3] is on record as “resulted in the differentiation”. The “effect … of naive-hESCs/hiPSCs” value in assay [4] was “but not of naive-hESCs/hiPSCs or mESCs”.

On to `O=C(NOC[C@H](O)CO)c1ccc(F)c(F)c1Nc1ccc(I)cc1F` [PD], for which, in assay [2], the “effect … of conventional hESCs” value is “could not be propagated”. Further, the “role in the 13i+LIF cocktail on removing one inhibitor at a time” value in assay [6] is on record as “crucial components”.

On to TGFβ, for which, in assay [1], the “effect on pluripotency of mESCs” value was “differentiated”. In assay [4], the “effect … of naive-hESCs/hiPSCs” value was “differentiated”.

As to Wnt3a, in assay [5], the “Dox-independent growth of pluripotent NOD-iPS cells” value is recorded as “supported Dox-independent growth”.
